Test results taken from patent US4628061A, “Prostaglandins” (National Research Development Corporation, priority 1981, dated 1986).

Tests used:
Format in all cases: cell-based
[1] = biological target: T1, thromboxane receptor sites (Homo sapiens, UniProt P21731); test: Human Platelet System (inhibition of aggregation by 11,9-(epoxymethano) PGH2 in platelet-rich plasma); details: Gaddum-Schild Equation, agonist 11,9-(epoxymethano) PGH2, compound added 5 minutes before agonist, typical values, read-out: Affinity Constants (KB) Human Platelets (converted)
T1 construct: Platelet-rich plasma is obtained from fresh, citrated human blood; endogenous in cells; host or cells: human platelets in platelet-rich plasma from fresh citrated blood
T1 sequence (P21731 1-343): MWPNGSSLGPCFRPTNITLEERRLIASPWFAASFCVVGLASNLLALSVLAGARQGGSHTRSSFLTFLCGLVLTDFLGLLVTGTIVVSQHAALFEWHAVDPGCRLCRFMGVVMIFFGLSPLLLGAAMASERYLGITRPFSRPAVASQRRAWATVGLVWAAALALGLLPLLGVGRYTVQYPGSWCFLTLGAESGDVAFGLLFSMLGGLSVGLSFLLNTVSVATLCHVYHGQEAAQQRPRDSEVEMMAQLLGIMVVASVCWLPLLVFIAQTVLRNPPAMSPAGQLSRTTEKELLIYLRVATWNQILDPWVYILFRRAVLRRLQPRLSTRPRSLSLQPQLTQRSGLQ
Description: (§1) The compound of Example 2 and various of the compounds of Example 8 are tested in the following three systems.
Platelet-rich plasma is obtained from fresh, citrated human blood. Addition of the agonist 11,9-(epoxymethano) PGH2 (1×10^-7 to 5×10^-7 M) causes immediate aggregation recorded as an increase in light transmission (600 nm). In a second experiment the compound under test is added 5 minutes previous to the addition to the PGH2 analogue. The dose of the PGH2 analogue added is then increased to a level which gives a similar response to that obtained in the absence of antagonist.
(§2) In the case of each system, the affinity constant, KB, for the compound under test is calculated according to the Gaddum-Schild Equation (based on Law of Mass Action). [formula]

[2] = biological target: T2, thromboxane receptor sites (Oryctolagus cuniculus, UniProt Q6WQI8); test: Rabbit Aorta System (inhibition of tension response of spiral strips of thoracic aorta to 11,9-(epoxymethano) PGH2); details: for Kb: Gaddum-Schild Equation, agonist 11,9-(epoxymethano) PGH2, compound added 50 minutes before agonist, 37° C, typical values, read-out: Affinity Constants (KB) Rabbit Aorta (converted)
T2 construct: contraction to 11,9-(epoxymethano) PGH2 (U-46619)
T2 sequence (Q6WQI8 1-233): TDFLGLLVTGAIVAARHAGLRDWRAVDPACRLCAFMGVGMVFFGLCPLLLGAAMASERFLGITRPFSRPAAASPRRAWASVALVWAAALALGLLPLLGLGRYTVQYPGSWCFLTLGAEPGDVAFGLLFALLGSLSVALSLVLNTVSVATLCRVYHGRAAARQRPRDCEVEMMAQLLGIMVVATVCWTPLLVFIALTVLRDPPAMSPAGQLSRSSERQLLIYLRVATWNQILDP
Description: as §1
Sprial strips of thoracic aorta are suspended in Kreb's-Henseleit solution aerated with 95% O2 /5% CO2 and maintained at 37° C. Tension changes are recorded with a Grass FTO3 force transducer. Initially, cumulative dose response curves to the agonist 11,9-(epoxymethano) PGH2 are obtained (typically at concentrations of 2×10^-9, 1×10^-8, 5×10^-8 and 2.5×10^-7 M). In a second experiment, the compound under test is added 50 minutes previous to the addition of the series of agonist doses.
as §2

[3] = biological target: T3, thromboxane receptor sites (Cavia porcellus, UniProt A0A286Y4I8); test: Guinea Pig Trachea System (inhibition of tension response of spiral strips of trachea to 11,9-(epoxymethano) PGH2); details: Gaddum-Schild Equation; agonist 11,9-(epoxymethano) PGH2; atropine sulphate and indomethacin present; compound added 50 minutes before agonist; 37° C; typical values; read-out: Affinity Constants (KB) Guinea Pig Trachea (converted)
T3 construct: from tissue; host or cells: guinea pig trachea, spiral strips
T3 sequence (A0A286Y4I8 1-347): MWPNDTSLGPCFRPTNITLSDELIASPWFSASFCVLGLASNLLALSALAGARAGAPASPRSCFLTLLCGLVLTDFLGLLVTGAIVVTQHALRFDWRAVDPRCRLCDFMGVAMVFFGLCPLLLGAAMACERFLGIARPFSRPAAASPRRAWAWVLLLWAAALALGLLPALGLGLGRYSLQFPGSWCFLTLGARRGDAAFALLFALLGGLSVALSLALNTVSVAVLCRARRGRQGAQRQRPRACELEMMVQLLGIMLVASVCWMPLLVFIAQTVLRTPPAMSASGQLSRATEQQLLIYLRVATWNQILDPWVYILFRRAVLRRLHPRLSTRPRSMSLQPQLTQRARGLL
Description: as §1
Guinea Pig Trachea System
Spiral strips of trachea are suspended in Kreb's-Henseleit solution, additionally containing atropine sulphate (2×10^-8 M) and indomethacin (10^-6), aerated with 95% O2 /5% CO2 and maintained at 37° C. Tension changes are recorded with a Grass FTO3 force transducer. Initially, cumulative dose response curves to the agonist 11,9-(epoxymethano) PGH2 are obtained (typically at the same concentrations as for the rabbit aorta system). In a second experiment, the compound under test is added 50 minutes previous to the addition of the series of agonist doses.
as §2

SMILES | Kb [1] | Kb [2] | pure antagonist activity in the rabbit aorta system ([2]; in words) | Kb [3]
O=C(O)CCC/C=C\C[C@H]1[C@H]2CC[C@H](C2)[C@@H]1CNC(=O)Nc1ccccc1 (relative stereo) [--CH2 NHCONHC6 H5, 5-endo-(6'-Carboxyhex-2'Z-enyl)-6-exo-[N-(phenylcarbamoyl)-aminomethyl]-bicyclo[2,2,1]heptane] | 3570 nM | 1000 nM | pure antagonist activity | 323 nM
COc1ccc(NC(=O)NCCC2C3C=CC(C3)C2C/C=C\CCCC(=O)O)cc1 (centres unmarked) [--(CH2)2 NHCONHC6 H4 OCH3 (p)] |  | 833 nM |  | 145 nM
O=C(O)CCC/C=C\CC1C2C=CC(C2)C1CCNC(=O)Nc1ccccc1 (centres unmarked) [--(CH2)2 NHCONHC6 H5] | 29400 nM | 345 nM |  | 196 nM
COc1ccc(NC(=S)NCCC2C3C=CC(C3)C2C/C=C\CCCC(=O)O)cc1 (centres unmarked) [--(CH2)2 NHCSNHC6 H4 OCH3 (p)] | 12500 nM | 526 nM |  | 
COc1ccc(NC(=S)NC(C)CC2C3C=CC(C3)C2C/C=C\CCCC(=O)O)cc1 (centres unmarked) [--CH2 CH(CH3)NHCSNHC6 H4 OCH3 (p)] | 5000 nM | 1050 nM |  | 123 nM
COc1ccc(NC(=S)NCC2C3C=CC(C3)C2C/C=C\CCCC(=O)O)cc1 (centres unmarked) [--CH2 NHCSNHC6 H4 OCH3 (p)] | 13900 nM | 169 nM |  | 154 nM
